Measurements taken from patent publication US20250313653A1, “GUEST/HOST INCLUSION COMPLEXES CONTAINING S-NITROSOGLUTATHIONE AND METHODS OF USE THEREOF” (VIRGINIA COMMONWEALTH UNIVERSITY, priority 2022, published 2025).

How the values were obtained:
S. aureus [1] = test: Prevention of intraluminal catheter infection (planktonic and biofilm); type: cell-based; settings: 3-day experiments
Description: (§1) Both biofilm and planktonic bacteria were quantified to evaluate the antibacterial activities of the proposed method. LB medium (25 mg/mL) was used to culture all bacterial strains overnight before performing the antibacterial tests. Segments of medical-grade silicone tubes were all autoclaved. Lock solutions were freshly prepared using the sterilized buffer and filtered through a 0.22 m PES syringe filter. The biofilms on the silicone surface were dip-rinsed 5 times in PBS and detached by 1-min vertexing, 1-min sonication (20% power of a 150 W probe sonifier, Branson Ultrasonics), and another 1-min vertexing for plate counting. When quantifying the planktonic bacteria, the suspension was homogenized by 1-min vertexing. […] After plate incubation at 37° C. overnight, colony-forming units (CFU) of bacteria were counted and converted to CFU/cm^2 for biofilm quantification and CFU/mL for planktonic bacteria quantification. […] In our case, the limit of detection (LOD) is 400 CFU/cm^2 for biofilm quantification and 200 CFU/mL for quantification of planktonic bacteria. […] The statistical significance between groups was determined using a student's t-test.
The 0.1 M αCD, 0.1 M GSNO, and 0.1 M GSNO+0.1 M αCD solutions were prepared in LB broth buffered with 0.1 M Na2HPO4 and adjusted to pH 7.4. […] Viable biofilm and planktonic cells were evaluated by plate counting. […]

S. aureus [2] = test: Prevention of extraluminal biofilm on silicone catheters; type: cell-based; settings: 3-day experiments, 0.1 M GSNO without or with 0.1 M αCD as lock solution, 37° C.
Description: as §1
The overnight S. aureus culture was diluted by LB (0.25 mg/mL) medium to approximately 10^3 CFU/mL. […] The viable bacteria on the outer surface were counted following the treatment.

[3] = NO release from silicone rubber tubes filled with lock solutions; type: physicochemical; settings: silicone tube filled with 0.1 M GSNO without or with 0.1 M αCD, 37° C.
Description: (§2) The NO release was quantified by an ECO PHYSICS NO analyzer (nCLD 66). […] of castor oil was added to NO release solutions as an antifoam agent when 3 mL GSNO or GSNO-CD solutions were tested in an amber glass cell at 37° C. Humidified air was vacuumed into the solution to carry NO continuously into the chemiluminescence detection chamber at a flow rate of 100 cm^3/min. The solutions were stored in sealed amber glass vials between measurements at 37° C. To monitor the NO release from catheters, solutions were filled into 2.5 cm-long medical-grade silicone tubes (HelixMark® 60-011-07, 1.58 mm ID, 2.41 mm OD) that were scaled on both ends with plastic rods. The filled tubes were placed into the amber glass cell containing 5 mL of 0.01 M PBS with 0.1 mM EDTA (PBSE) at 37° C. N2 was used as the carrier gas at a flow rate of 100 cm^3/min to introduce NO into the analyzer. Filled tubes were stored in 10 mL PBSE at 37° C. in the dark between measurements. The soaking PBSE solution was refreshed after each measurement.

[4] = NO release from GSNO solutions (chemiluminescence NO analyzer); type: physicochemical; settings: 3 mL of 0.1 M GSNO solution with or without an equal mole of αCD, 37° C.
Description: as §2

[5] = GSNO decomposition in the presence of biologically relevant reactants (cysteine, L-ascorbic acid, BSA); type: physicochemical; settings: for GSNO left after 24 h of storage: 0.1 M GSNO with 20 mg/mL BSA, 37° C.
Description: GSNO was synthesized by nitrosation of reduced L-glutathione in acidified nitrite as previously reported.^52 After collecting GSNO precipitates and washing them using cold water and acetone, GSNO powder was vacuum dried for 4 h and stored at −20° C. GSNO powders were dissolved in phosphate buffer (PB) containing the same mole of Na2HPO4 before the pH adjustment. For example, the formal concentration of Na2HPO4 is 0.1 M when the GSNO concentration is 0.1 M. One hundred μM EDTA was always added to each solution before the solution pH was finally adjusted to 7.4 via NaOH. EDTA is a chelating agent to mask Cu^2+, a S-nitrosothiol catalyst that may exist in solvents and chemicals as an impurity.^53 For solutions with reactive agents, BSA, ascorbic acid, or cysteine was added before the pH adjustment. To prepare GSNO-CD solutions, appropriate amounts of CD powders were dissolved into the GSNO solutions prior to the pH adjustment.
(§3) Aqueous GSNO solutions were contained in 1.5 mL disposable polystyrene cuvettes. The cuvette was caped and further sealed with parafilm. The concentrations of GSNO during storage at 37° C. or 25° C. in the dark were monitored by a UV-vis spectrophotometer (Go Direct® Fluorescence/UV-VIS Spectrophotometer) at a wavelength of 545 nm. A 4 W LED white light was used as the light source for the photodecomposition experiment at room temperature. The distance between the light source and the cuvettes was approximately 10 cm. All GSNO decomposition experiments were triplicated, and the GSNO concentration was expressed as mean±standard deviation.

[6] = GSNO photodecomposition under LED white light; type: physicochemical; settings: presence of αCD, 4-h experiment under LED white light, room temperature
Description: as §3

SMILES: N[C@@H](CCC(=O)N[C@@H](CSN=O)C(=O)NCC(=O)O)C(=O)O [GSNO, S-nitrosoglutathione]
- reduction of bacterial biofilm on silicone rubber (S. aureus [1]): 99.2%
- reduction of growth of planktonic S. aureus compared to the phosphate buffer (S. aureus [1]; 0.1 M GSNO without or with 0.1 M αCD, 37° C.): 5 orders of magnitude
- reduction of bacterial biofilm on the outer catheter surface compared to control solutions (S. aureus [2]): 70%
- initial release of NO on day 0 [3]: 14.8×10^−10 mol cm^−2 min^−1
- duration of NO release over 0.1×10^−10 mol cm^−2 min^−1 from the catheter exterior ([3]; in pH 7.4 PBSE): 6 days
- duration of NO release [4]: 6 days
- GSNO lifetime ([5]; 0.1 M GSNO in 0.1 M PB pH 7.4 with 10 mM cysteine or L-ascorbic acid, without αCD): 2 to 3 days
- effect on GSNO decomposition rate ([5]; 0.1 M GSNO with 10 mM cysteine or L-ascorbic acid, addition of 0.1 M αCD, 4-day experiments): remarkably reduces the decomposition rate
- GSNO left after 24 h of storage ([5]; control group without αCD): 21%
- GSNO left after 24 h of storage ([5]; in the presence of 0.1 M αCD): 41%
- decrease in the decomposition rate of GSNO [6]: ~2 fold
